Experiments:
Type in all cases: cell-based
[1] = system: MDA-MB-231: breast cancer; assay: In vitro anti-proliferative activity, BrdU incorporation, MDA-MB-231; details: MDA-MB-231 cells, 50% inhibition of proliferation, BrdU incorporation into DNA
Experimental: (§1) Determination of in vitro anti-proliferative activity of substituted estradiol analogs: In vitro anti-proliferative or anti-mitogenic activity was determined using a commercially available cell-based assay in 96-well tissue culture plates with assessment of proliferation by evaluating DNA synthesis through incorporation into DNA of immuno-reactive (BrdU) nucleotides. The cell types used are commercially available (MDA-MB-231: breast cancer; U87-MG: glioblastoma; PC3: prostate cancer; HUVEC: non-transformed early passage human umbilical vein endothelial cells). These assays, and the many assay variations possible to determine in vitro anti-proliferative or anti-mitogenic activity, are well known to those skilled in the art. The concentration which causes 50% inhibition of proliferation (IC50) was estimated from a dose-response curve generally carried out with a range of concentrations from ≧100 microg/mL to ≦0.01 microg/mL.

[2] = system: HUVEC: non-transformed early passage human umbilical vein endothelial cells; assay: In vitro anti-proliferative activity, BrdU incorporation, HUVEC; details: 50% inhibition of proliferation, BrdU incorporation into DNA
Experimental: as §1

PC3: prostate cancer = assay: In vitro anti-proliferative activity, BrdU incorporation, PC3; details: PC3 cells, 50% inhibition of proliferation, BrdU incorporation into DNA
Experimental: as §1

U87-MG: glioblastoma = assay: In vitro anti-proliferative activity, BrdU incorporation, U87-MG; details: U87-MG cells, 50% inhibition of proliferation, BrdU incorporation into DNA
Experimental: as §1

## CCOc1cc2c(cc1O)CC[C@@H]1[C@@H]2CC[C@]2(C)C(O)CC[C@@H]12 (some centres unmarked) [Compound 2, 2-Ethoxyestra-1,3,5(10)-trien-3,17-diol]
[1]; Homo sapiens
  IC50: 650 ± 230 nM
[2]; Homo sapiens
  IC50: 140 ± 70 nM

## CC#Cc1cc2c(cc1O)CCC1C2CC[C@@]2(C)C1CC[C@@H]2O (some centres unmarked) [Compound 3]
[1]; Homo sapiens
  IC50: 3990 ± 1120 nM
PC3: prostate cancer; Homo sapiens, PC-3
  IC50: 2220 ± 130 nM
U87-MG: glioblastoma; Homo sapiens, U-87 MG
  IC50: 2680 ± 220 nM
[2]; Homo sapiens
  IC50: 520 ± 140 nM

## COc1cc2c(cc1O)CC[C@@H]1[C@@H]2CC[C@]2(C)C(=O)CC[C@@H]12 [Compound 4, 2-methoxyestra-1,3,5(10)-trien-3-ol-17-one, reference compound]
[1]; Homo sapiens
  IC50: 11700 nM
PC3: prostate cancer; Homo sapiens, PC-3
  IC50: 13700 nM
U87-MG: glioblastoma; Homo sapiens, U-87 MG
  IC50: 10500 nM
[2]; Homo sapiens
  IC50: 12600 nM

## COc1cc2c(cc1O)CC[C@@H]1[C@@H]2CC[C@]2(C)CCC[C@@H]12 [Compound 7, 2-methoxyestra-1,3,5(10)-triene-3-ol]
[1]; Homo sapiens
  IC50: 2200 ± 520 nM
PC3: prostate cancer; Homo sapiens, PC-3
  IC50: 8490 ± 2490 nM
U87-MG: glioblastoma; Homo sapiens, U-87 MG
  IC50: 7350 ± 430 nM
[2]; Homo sapiens
  IC50: 1320 ± 560 nM

## C=C1CC[C@H]2[C@@H]3CCc4cc(O)c(OC)cc4[C@H]3CC[C@]12C [Compound 10, 2-methoxy-17(20)-methyleneestra-1,3,5(10)-triene-3-ol]
[1]
  IC50: 580 ± 310 nM
[2]
  IC50: 260 ± 230 nM

## CC=C1CCC2C3CCc4cc(O)c(OC)cc4C3CCC12C (centres unmarked) [Compound 13, 2-Methoxy-19-norpregna-1,3,5(10)17(20)-tetraene-3-ol]
[1]
  IC50: 2630 ± 200 nM
PC3: prostate cancer
  IC50: 1150 ± 400 nM
U87-MG: glioblastoma
  IC50: 2370 ± 340 nM
[2]
  IC50: 370 ± 80 nM

## COc1cc2c(cc1O)CC[C@@H]1[C@@H]2CC[C@]2(C)[C@@H](C)CC[C@@H]12 [Compound 16, 2-methoxy-17β-methylestra-1,3,5(10)-triene-3-ol]
[1]; Homo sapiens
  IC50: 3330 ± 230 nM
PC3: prostate cancer; Homo sapiens, PC-3
  IC50: 6460 ± 2310 nM
U87-MG: glioblastoma; Homo sapiens, U-87 MG
  IC50: 9390 ± 430 nM
[2]; Homo sapiens
  IC50: 2400 ± 450 nM

## COc1cc2c(cc1OS(N)(=O)=O)CC[C@@H]1[C@@H]2CC[C@]2(C)C(=O)CC[C@@H]12 [Compound 19, 3-sulfamate-2-methoxyestra-1,3,5(10)-trien-17-one]
[1]
  IC50: 600 ± 430 nM
PC3: prostate cancer
  IC50: 510 ± 240 nM
U87-MG: glioblastoma
  IC50: 800 ± 230 nM
[2]
  IC50: 180 ± 40 nM

## CCOc1cc2c(cc1OS(N)(=O)=O)CC[C@@H]1[C@@H]2CC[C@]2(C)C(=O)CC[C@@H]12 [Compound 20, 3-sulfamate-2-ethoxyestra-1,3,5(10)-trien-17-one]
[1]
  IC50: 7520 ± 2040 nM
PC3: prostate cancer
  IC50: 8930 ± 610 nM
U87-MG: glioblastoma
  IC50: 19800 ± 2320 nM
[2]
  IC50: 2590 ± 250 nM

## C=Cc1cc2c(cc1OC)[C@H]1CC[C@]3(C)C(=O)CC[C@H]3[C@@H]1CC2 [Compound 25, 2-methoxy-3-(vinyl)estra-1,3,5(10)-triene-17-one]
[1]; Homo sapiens
  IC50: 2570 ± 290 nM
PC3: prostate cancer; Homo sapiens, PC-3
  IC50: 1430 ± 400 nM
U87-MG: glioblastoma; Homo sapiens, U-87 MG
  IC50: 2200 ± 60 nM
[2]; Homo sapiens
  IC50: 580 ± 10 nM

## C=Cc1cc2c(cc1OC)[C@H]1CC[C@]3(C)[C@@H](O)CC[C@H]3[C@@H]1CC2 [Compound 25a, 2-methoxy-3-(vinyl)estra-1,3,5(10)-triene-17β-ol]
[1]; Homo sapiens
  IC50: 8930 ± 610 nM
PC3: prostate cancer; Homo sapiens, PC-3
  IC50: 6340 ± 80 nM
U87-MG: glioblastoma; Homo sapiens, U-87 MG
  IC50: 7810 ± 1300 nM
[2]; Homo sapiens
  IC50: 1960 ± 50 nM

## COc1cc2c(cc1C(=O)O)CC[C@@H]1[C@@H]2CC[C@]2(C)C(=O)CC[C@@H]12 [Compound 28, 2-methoxy-3-(carboxylic acid)estra-1,3,5(10)-triene-17-one]
[1]
  IC50: > 100000 nM
PC3: prostate cancer
  IC50: > 100000 nM
U87-MG: glioblastoma
  IC50: > 100000 nM
[2]
  IC50: > 100000 nM

## COc1cc2c(cc1C(N)=O)CC[C@@H]1[C@@H]2CC[C@]2(C)C(=O)CC[C@@H]12 [Compound 31, 2-methoxy-3-carboxamideestra-1,3,5(10)-triene-17-one]
[1]
  IC50: 700 ± 120 nM
PC3: prostate cancer
  IC50: 700 ± 30 nM
U87-MG: glioblastoma
  IC50: 1070 ± 150 nM
[2]
  IC50: 790 ± 200 nM

## COc1cc2c(cc1N)CC[C@@H]1[C@@H]2CC[C@]2(C)C(=O)CC[C@@H]12 [Compound 34, 3-amino-2-methoxyestra-1,3,5(10)-trien-17-one]
[1]; Homo sapiens
  IC50: 46900 ± 8150 nM
PC3: prostate cancer; Homo sapiens, PC-3
  IC50: > 100000 nM
U87-MG: glioblastoma; Homo sapiens, U-87 MG
  IC50: 81500 ± 20400 nM
[2]; Homo sapiens
  IC50: 23400 ± 4140 nM

## CCOc1cc2c(cc1N)CC[C@@H]1[C@@H]2CC[C@]2(C)C(=O)CC[C@@H]12 [Compound 35, 3-Amino-2-ethoxyestra-1,3,5(10)-trien-17-one]
[1]; Homo sapiens
  IC50: 10600 ± 2980 nM
PC3: prostate cancer; Homo sapiens, PC-3
  IC50: 9250 ± 1580 nM
U87-MG: glioblastoma; Homo sapiens, U-87 MG
  IC50: 26000 ± 1400 nM
[2]; Homo sapiens
  IC50: 16500 ± 2020 nM

From patent US7371741B2, “Estradiol derivatives and pharmaceutical compositions using same” (EntreMed, Inc., priority 2003, dated 2008)
